These results are taken from doi:10.1101/2025.02.22.639610v1, “Excavating Podocyte-Protective Targets of phloroglucinol-terpene hybrids Utilizing AI Models and Omics Analysis” (biorxiv, 2025).

Each structure is given as a SMILES string.

This assay concerns the target T1, EGFR^WT kinase (Homo sapiens, UniProt P00533).
T1 construct: commercial wild-type EGFR kinase (Sigma Aldrich)
The assay can be described thus: HTRF KinEASE-TK kinase assay. Type of assay: biochemical. A general note: TR-FRET usually uses a lanthanide donor and a delayed reading to cut background.

T1 sequence (P00533 25-1210): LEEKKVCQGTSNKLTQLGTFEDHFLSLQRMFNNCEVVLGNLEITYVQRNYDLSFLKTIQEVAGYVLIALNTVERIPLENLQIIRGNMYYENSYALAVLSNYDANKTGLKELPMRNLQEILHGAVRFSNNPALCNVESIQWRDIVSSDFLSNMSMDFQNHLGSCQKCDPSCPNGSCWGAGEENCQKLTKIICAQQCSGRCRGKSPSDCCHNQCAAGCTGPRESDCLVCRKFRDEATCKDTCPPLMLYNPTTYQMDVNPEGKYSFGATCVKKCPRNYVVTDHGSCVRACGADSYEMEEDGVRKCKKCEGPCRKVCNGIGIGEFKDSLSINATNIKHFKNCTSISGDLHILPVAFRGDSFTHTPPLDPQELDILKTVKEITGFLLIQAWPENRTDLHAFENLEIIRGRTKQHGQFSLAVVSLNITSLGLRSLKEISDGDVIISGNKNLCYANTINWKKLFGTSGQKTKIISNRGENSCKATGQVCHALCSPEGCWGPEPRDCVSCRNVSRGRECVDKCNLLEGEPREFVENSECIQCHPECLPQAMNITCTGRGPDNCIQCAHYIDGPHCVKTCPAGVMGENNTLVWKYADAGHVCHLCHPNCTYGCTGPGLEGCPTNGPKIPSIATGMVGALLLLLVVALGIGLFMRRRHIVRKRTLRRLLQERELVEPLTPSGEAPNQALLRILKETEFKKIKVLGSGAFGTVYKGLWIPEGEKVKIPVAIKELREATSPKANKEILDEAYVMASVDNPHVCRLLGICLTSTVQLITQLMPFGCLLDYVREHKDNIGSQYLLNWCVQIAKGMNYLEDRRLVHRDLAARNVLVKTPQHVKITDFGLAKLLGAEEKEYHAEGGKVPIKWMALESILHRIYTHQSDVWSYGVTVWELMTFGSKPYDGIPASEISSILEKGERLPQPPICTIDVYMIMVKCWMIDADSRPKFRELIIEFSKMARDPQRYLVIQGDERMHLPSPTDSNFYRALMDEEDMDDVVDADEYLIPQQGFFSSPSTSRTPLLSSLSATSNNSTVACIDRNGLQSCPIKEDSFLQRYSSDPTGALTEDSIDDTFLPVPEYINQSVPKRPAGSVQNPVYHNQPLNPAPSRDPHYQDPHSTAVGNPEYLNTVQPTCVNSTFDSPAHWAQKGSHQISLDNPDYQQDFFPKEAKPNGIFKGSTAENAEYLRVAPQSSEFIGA

For orientation: IC50 means the concentration that inhibits the measured activity by half. Higher therefore signals weaker potency. Molecule `C=C(C)[C@H]1C=C2[C@H](C)CC[C@H](Cc3c(O)c(C=O)c4c(c3O)C(=O)CC(C)(C)O4)[C@@]2(C)CC1` [R14, Eucarbwenstols D] had an IC50 of 191 nM.
